# Reference: patent publication US20150105252A1, “SUBSTITUTED PYRAZOLES AS HERBICIDES” (E I DU PONT DE NEMOURS AND COMPANY, priority 2013, published 2015)
# Key:
# [1] = test system: leafy spurge; experiment: Test E preemergence; format: in vivo, Euphorbia esula; details: 21 days, scale 0 to 100
# Text: (§1) Seeds of plant species selected from bermudagrass (Cynodon dactylon), Surinam grass (Brachiaria decumbens), crabgrass, large (large crabgrass, Digitaria sanguinalis), crabgrass, naked (naked crabgrass, Digitaria nuda), foxtail, green (green foxtail, Setaria viridis), johnsongrass (Sorghum halepense), kochia (Kochia scoparia), morningglory (pitted morningglory, Ipomoea lacunosa), nutsedge, purple (purple nutsedge, Cyperus rotundus), ragweed (common ragweed, Ambrosia elation), mustard, black (black mustard, Brassica nigra), guineagrass (Panicum maximum), dallisgrass (Paspalum dilatatum), barnyardgrass (Echinochloa crus-galli), sandbur (southern sandbur, Cenchrus echinatus), sowthistle (common sowthistle, Sonchus oleraceous), ryegrass, Italian (Italian ryegrass, Lolium multiflorum), signalgrass (broadleaf signalgrass, Brachiaria platyphylla), dayflower, VA (Virginia (VA) dayflower, Commelina virginica), bluegrass (annual bluegrass, Poa annua), quackgrass (Elytrigia repens), mallow (common mallow, Malva sylvestris), buckwheat, wild (wild buckwheat, Polygonum convolvulus), leafy spurge (Euphorbia esula), common chickweed (Stellaria media), wild poinsettia (Euphorbia heterophylla), pigweed, palmer (palmer pigweed, Amaranthus palmeri), and pigweed (redroot pigweed, Amaranthus retroflexus) were planted into a blend of loam soil and sand and treated preemergence with test chemicals formulated in a non-phytotoxic solvent mixture which included a surfactant.
# (§2) Treated plants and controls were maintained in a greenhouse for 21 days, after which time all species were compared to controls and visually evaluated. Plant response ratings, summarized in Table E, are based on a scale of 0 to 100 where 0 is no effect and 100 is complete control. A dash (-) response means no test result.
# [2] = test system: guineagrass; experiment: Test E preemergence; format: in vivo, Panicum maximum; details: 21 days, scale 0 to 100
# Text: as §1, §2
# [3] = test system: dallisgrass; experiment: Test E preemergence; format: in vivo, Paspalum dilatatum; details: 21 days, scale 0 to 100
# Text: as §1, §2
# [4] = test system: arrowleaf sida; experiment: Test F postemergence; format: in vivo, Sida rhombifolia; details: scale 0 to 100
# Text: (§3) Seeds of plant species selected from corn (Zea mays), soybean (Glycine max), velvetleaf (Abutilon theophrasti), lambsquarters (Chenopodium album), wild poinsettia (Euphorbia heterophylla), pigweed, palmer (palmer pigweed, Amaranthus palmeri), common waterhemp (Amaranthus rudis), surinam grass (Brachiaria decumbens), large crabgrass (Digitaria sanguinalis), crabgrass, Brazil (Brazilian crabgrass, Digitaria horizontalis), fall panicum (Panicum dichotomiflorum), giant foxtail (Setaria faberii), green foxtail (Setaria viridis), goosegrass (Eleusine indica), johnsongrass (Sorghum halepense), common ragweed (Ambrosia elation), barnyardgrass (Echinochloa crus-galli), southern sandbur (Cenchrus echinatus), arrowleaf sida (Sida rhombifolia), Italian ryegrass (Lolium multiflorum), dayflower, VA (Virginia (VA) dayflower, Commelina virginica), field bindweed (Convolvulus arvensis), cocklebur (common cocklebur, Xanthium strumarium), morningglory (Ipomoea coccinea), nightshade (eastern black nightshade, Solanum ptycanthum), kochia (Kochia scoparia), yellow nutsedge (Cyperus esculentus), and hairy beggarticks (Bidens pilosa), were planted into a silt loam soil and treated preemergence with test chemicals formulated in a non-phytotoxic solvent mixture which included a surfactant.
# (§4) At the same time, plants from these crop and weed species and also horseweed (Canada horseweed, Conyza canadensis), smartweed (ladysthumb smartweed, Polygonum persicaria), waterhemp_RES1, (ALS & Triazine resistant common waterhemp, Amaranthus rudis), and waterhemp_RES2, (ALS & HPPD resistant common waterhemp, Amaranthus rudis) were treated with postemergence applications of test chemicals formulated in the same manner. Plants ranged in height from 2 to 18 cm for postemergence treatments (1- to 4-leaf stage). Treated plants and controls were maintained in a greenhouse for 14 to 21 days, after which time all species were compared to controls and visually evaluated. Plant response ratings, summarized in Table F, are based on a scale of 0 to 100 where 0 is no effect and 100 is complete control. A dash (-) response means no test result.
# [5] = test system: kochia; experiment: Test F postemergence; format: in vivo, Kochia scoparia; details: scale 0 to 100
# Text: as §3, §4
# [6] = test system: soybean; experiment: Test F postemergence; format: in vivo, Glycine max; details: scale 0 to 100
# Text: as §3, §4
# [7] = test system: galium; experiment: Test A postemergence; format: in vivo, Galium aparine
# Summary of the method: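 Injury readout: eye-scored versus untreated controls, 0 to 100. Exposure period: ~10 days, greenhouse. Application: soil-directed spray over sown seed (pre) or spray on seedlings 2–10 cm tall with one or two leaves (post), compound carried in non-phytotoxic solvent including surfactant.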
# [8] = test system: sowthistle; experiment: Test E preemergence; format: in vivo, Sonchus oleraceous; details: 21 days, scale 0 to 100
# Text: as §1, §2
# [9] = Postemergence, 500 g ai/ha, 0 to 100 scale (0 no effect, 100 complete control)
# [10] = postemergence, 125 g ai/ha, about 10 days, visual rating on 0 to 100 scale (0 no effect, 100 complete control)
compound,measurement,setting,value
CCc1cc(C(=O)NC(C)C)nn1Cc1ccnc(C(F)(F)F)c1 [Compound 103],"Plant response rating, Leafy Spurge",[1]; 16 g ai/ha,75
same,"Plant response rating, Leafy Spurge",[1]; 31 g ai/ha,95
same,"Plant response rating, Leafy Spurge",[1]; 62 g ai/ha,100
same,"Plant response rating, Leafy Spurge",[1]; 125 g ai/ha,100
same,"Plant response rating, Leafy Spurge",[1]; 250 g ai/ha,100
same,"Plant response rating, Guineagrass",[2]; 16 g ai/ha,100
same,"Plant response rating, Guineagrass",[2]; 31 g ai/ha,100
same,"Plant response rating, Guineagrass",[2]; 62 g ai/ha,100
same,"Plant response rating, Guineagrass",[2]; 125 g ai/ha,100
same,"Plant response rating, Guineagrass",[2]; 250 g ai/ha,100
same,"Plant response rating, Dallisgrass",[3]; 16 g ai/ha,90
same,"Plant response rating, Dallisgrass",[3]; 31 g ai/ha,100
same,"Plant response rating, Dallisgrass",[3]; 62 g ai/ha,100
same,"Plant response rating, Dallisgrass",[3]; 125 g ai/ha,100
same,"Plant response rating, Dallisgrass",[3]; 250 g ai/ha,100
CCOc1cc(C(=O)NCC(F)(F)F)nn1Cc1ccnc(C(F)(F)F)c1 [Compound 104],"Plant response rating, Arrowleaf Sida","[4]; Postemergence, 31 g ai/ha",55
same,"Plant response rating, Arrowleaf Sida","[4]; Postemergence, 125 g ai/ha",70
same,"Plant response rating, Arrowleaf Sida","[4]; Postemergence, 250 g ai/ha",80
same,"Plant response rating, Arrowleaf Sida","[4]; postemergence, 62 g ai/ha",60
same,"Plant response rating, Arrowleaf Sida","[4]; postemergence, 500 g ai/ha",95
same,"Plant response rating, Leafy Spurge",[1]; 16 g ai/ha,100
same,"Plant response rating, Leafy Spurge",[1]; 31 g ai/ha,98
same,"Plant response rating, Leafy Spurge",[1]; 62 g ai/ha,100
same,"Plant response rating, Leafy Spurge",[1]; 125 g ai/ha,98
same,"Plant response rating, Leafy Spurge",[1]; 250 g ai/ha,100
same,"Plant response rating, Kochia","[5]; Postemergence, 31 g ai/ha",75
same,"Plant response rating, Kochia","[5]; Postemergence, 125 g ai/ha",90
same,"Plant response rating, Kochia","[5]; Postemergence, 250 g ai/ha",95
same,"Plant response rating, Kochia","[5]; postemergence, 62 g ai/ha",80
same,"Plant response rating, Kochia","[5]; postemergence, 500 g ai/ha",95
same,"Plant response rating, Guineagrass",[2]; 16 g ai/ha,100
same,"Plant response rating, Guineagrass",[2]; 31 g ai/ha,100
same,"Plant response rating, Guineagrass",[2]; 62 g ai/ha,100
same,"Plant response rating, Guineagrass",[2]; 125 g ai/ha,100
same,"Plant response rating, Guineagrass",[2]; 250 g ai/ha,100
same,"Plant response rating, Dallisgrass",[3]; 16 g ai/ha,95
same,"Plant response rating, Dallisgrass",[3]; 31 g ai/ha,98
same,"Plant response rating, Dallisgrass",[3]; 62 g ai/ha,100
same,"Plant response rating, Dallisgrass",[3]; 125 g ai/ha,100
same,"Plant response rating, Dallisgrass",[3]; 250 g ai/ha,100
same,"Plant response rating, Soybean","[6]; Postemergence, 31 g ai/ha",95
same,"Plant response rating, Soybean","[6]; Postemergence, 125 g ai/ha",98
same,"Plant response rating, Soybean","[6]; Postemergence, 250 g ai/ha",98
same,"Plant response rating, Soybean","[6]; postemergence, 62 g ai/ha",95
same,"Plant response rating, Soybean","[6]; postemergence, 500 g ai/ha",95
CCONC(=O)c1cc(CC)n(Cc2cc(C(F)(F)F)no2)n1 [Compound 125],Galium plant response rating,[7]; [9],90
same,Galium plant response rating,[7]; [10],60
CCOc1cc(C(=O)NC2CC2)nn1Cc1ccnc(OC(F)F)c1 [Compound 133],Galium plant response rating,[7]; [9],90
same,Galium plant response rating,[7]; [10],80
CCOc1cc(C(=O)NC(C)C)nn1Cc1ccnc(C(F)(F)F)c1 [Compound 188],"Plant response rating, Arrowleaf Sida","[4]; Postemergence, 31 g ai/ha",50
same,"Plant response rating, Arrowleaf Sida","[4]; Postemergence, 125 g ai/ha",60
same,"Plant response rating, Arrowleaf Sida","[4]; Postemergence, 250 g ai/ha",70
same,"Plant response rating, Arrowleaf Sida","[4]; postemergence, 62 g ai/ha",50
same,"Plant response rating, Arrowleaf Sida","[4]; postemergence, 500 g ai/ha",80
same,"Plant response rating, Kochia","[5]; Postemergence, 31 g ai/ha",40
same,"Plant response rating, Kochia","[5]; Postemergence, 125 g ai/ha",95
same,"Plant response rating, Kochia","[5]; Postemergence, 250 g ai/ha",90
same,"Plant response rating, Kochia","[5]; postemergence, 62 g ai/ha",60
same,"Plant response rating, Kochia","[5]; postemergence, 500 g ai/ha",95
same,"Plant response rating, Soybean","[6]; Postemergence, 31 g ai/ha",98
same,"Plant response rating, Soybean","[6]; Postemergence, 125 g ai/ha",95
same,"Plant response rating, Soybean","[6]; Postemergence, 250 g ai/ha",98
same,"Plant response rating, Soybean","[6]; postemergence, 62 g ai/ha",95
same,"Plant response rating, Soybean","[6]; postemergence, 500 g ai/ha",98
CCOc1cc(C(=O)NC2CC2)nn1Cc1ccnc(C(F)(F)F)c1 [Compound 189],"Plant response rating, Leafy Spurge",[1]; 4 g ai/ha,35
same,"Plant response rating, Leafy Spurge",[1]; 8 g ai/ha,75
same,"Plant response rating, Leafy Spurge",[1]; 16 g ai/ha,100
same,"Plant response rating, Leafy Spurge",[1]; 31 g ai/ha,100
same,"Plant response rating, Leafy Spurge",[1]; 62 g ai/ha,100
same,"Plant response rating, Sowthistle",[8]; 4 g ai/ha,98
same,"Plant response rating, Sowthistle",[8]; 8 g ai/ha,98
same,"Plant response rating, Sowthistle",[8]; 16 g ai/ha,100
same,"Plant response rating, Sowthistle",[8]; 31 g ai/ha,100
same,"Plant response rating, Sowthistle",[8]; 62 g ai/ha,100
same,"Plant response rating, Guineagrass",[2]; 4 g ai/ha,30
same,"Plant response rating, Guineagrass",[2]; 8 g ai/ha,75
same,"Plant response rating, Guineagrass",[2]; 16 g ai/ha,100
same,"Plant response rating, Guineagrass",[2]; 31 g ai/ha,100
same,"Plant response rating, Guineagrass",[2]; 62 g ai/ha,100
same,"Plant response rating, Dallisgrass",[3]; 4 g ai/ha,0
same,"Plant response rating, Dallisgrass",[3]; 8 g ai/ha,5
same,"Plant response rating, Dallisgrass",[3]; 16 g ai/ha,75
same,"Plant response rating, Dallisgrass",[3]; 31 g ai/ha,100
same,"Plant response rating, Dallisgrass",[3]; 62 g ai/ha,100
CCc1cc(C(=O)NCC(F)(F)F)nn1Cc1cc(OC(F)F)nn1C [Compound 206],Galium plant response rating,"[7]; Postemergence, 125 g ai/ha, 0 to 100 scale, 0 no effect, 100 complete control",20
same,Galium plant response rating,[7]; [9],80
